What was measured:
[1] = target: GST-MEK (p45MEK) / GST-MAPK (p44MAP kinase) (Homo sapiens, UniProt Q02750); test: APK IC50; cascade assay for inhibitors of the MAP kinase pathway; type: biochemical
Protocol: According to one aspect of the invention, the compounds are MEK inhibitors. MEK inhibition assays include the cascade assay for inhibitors of MAP kinase pathway described at column 6, line 36 to column 7, line 4 of U.S. Pat. No. 5,525,625 and the in vitro MEK assay at column 7, lines 4-27 of the same patent, the entire disclosure of which is incorporated by reference (see also Examples 5-10 below).
Incorporation of ^32P into myelin basic protein (MBP) is assayed in the presence of a glutathione S-transferase fusion protein containing p44MAP kinase (GST-MAPK) and a glutathione S-transferase fusion protein containing p45MEK (GST-MEK). The assay solution contains 20 mM HEPES, pH 7.4, 10 mM MgCl2, 1 mM MnCl2, 1 mM EGTA, 50,μM [γ-^32P]ATP, 10 μg GST-MEK, 0.5 μg GST-MAPK and 40 μg MBP in a final volume of 100 μL. Reactions are stopped after 20 minutes by addition of trichloroacetic acid and filtered through a GF/C filter mat. ^32P retained on the filter mat is determined using a 120S Betaplate. Compounds are assessed at 10 μM for ability to inhibit incorporation of ^32P.
To ascertain whether compounds are inhibiting GST-MEK or GST MAPK, two additional protocols are employed. In the first protocol, compounds are added to tubes containing GST-MEK, followed by addition of GST-MAPK, MBP and [β-^32P]ATP. In the second protocol, compounds are added to tubes containing both GST-MEK and GST-MAPK, followed by MBP and [β-^32P]ATP.
Compounds that show activity in both protocols are scored as MAPK inhibitors, while compounds showing activity in only the first protocol are scored as MEK inhibitors.

C26 Cells = test: C26 Cells; type: cell-based

GST-MEK (p45MEK) / GST-MAPK (p44MAP kinase), sequence (Q02750 whole entry): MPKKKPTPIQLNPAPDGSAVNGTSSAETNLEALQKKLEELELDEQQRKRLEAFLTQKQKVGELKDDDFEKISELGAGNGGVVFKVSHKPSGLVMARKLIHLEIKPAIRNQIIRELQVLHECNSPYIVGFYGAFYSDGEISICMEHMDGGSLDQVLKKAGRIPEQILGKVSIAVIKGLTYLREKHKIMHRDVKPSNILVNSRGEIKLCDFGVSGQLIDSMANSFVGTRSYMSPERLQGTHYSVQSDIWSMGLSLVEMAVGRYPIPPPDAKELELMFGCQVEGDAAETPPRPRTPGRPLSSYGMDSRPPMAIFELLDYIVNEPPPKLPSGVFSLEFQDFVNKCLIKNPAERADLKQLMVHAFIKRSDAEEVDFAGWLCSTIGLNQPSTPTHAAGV

Compound COC(=O)c1cc(S(=O)(=O)N(C)C)c(F)c(F)c1Nc1ccc(I)cc1Cl [PD 193846, 2-(2-Chloro-4-iodo-phenlylamino)-5-dimethylsulfamoyl-3,4-difluoro-benzoic acid methyl ester] has an IC50 [1] of 0.222 µM.
For NS(=O)(=O)c1cc(C(=O)O)c(Nc2ccc(I)cc2Cl)c(F)c1F [PD 215730, 2-(2-Chloro-4-iodo-phenylamino)-3,4-difluoro-5-sulfamoyl-benzoic acid], the IC50 [1] was 0.781 µM and the melting point was 295 to 296 °C (dec.).
Compound COc1ccc(CN(Cc2ccc(OC)cc2)S(=O)(=O)c2cc(C(=O)NOCC3CC3)c(Nc3ccc(I)cc3Cl)c(F)c2F)cc1 [PD 218774, 5-[Bis-(4-methoxy-benzyl)-sulfamoyl]-2-(2-chloro-4-iodo-phenylamino)-N-cyclopropylmethoxy-3,4-difluoro-benzamide] has an IC50 [1] greater than 3 µM.
For NS(=O)(=O)c1cc(C(=O)NOCC2CC2)c(Nc2ccc(I)cc2Cl)c(F)c1F [PD 219622, 2-(2-Chloro-4-iodo-phenylamino)-N-cyclopropylmethoxy-3,4-difluoro-5-sulfamoyl-benzamide], the IC50 [1] was 0.186 µM, the IC50 (C26 Cells) was 1.6 µM and the melting point was 219 to 227 °C (dec.).
Work on CN(Cc1cccnc1)S(=O)(=O)c1cc(C(=O)O)c(Nc2ccc(I)cc2Cl)c(F)c1F [PD 219795, 2-(2-Chloro-4-iodo-phenylamino)-3,4-difluoro-5-(methyl-pyridin-3-ylmethyl-sulfamoyl)-benzoic acid] yielded an IC50 [1] greater than 3 µM.
For NS(=O)(=O)c1cc(C(=O)NO)c(Nc2ccc(I)cc2Cl)c(F)c1F [PD 224213, 2-(2-Chloro-4-iodo-phenylamino)-3,4-difluoro-N-hydroxy-5-sulfamoyl-benzamide], the IC50 [1] was 0.122 µM, the IC50 (C26 Cells) was 9.1 µM and the melting point was 230 to 236 °C (dec.).
Compound CN(C)S(=O)(=O)c1cc(C(=O)O)c(Nc2ccc(I)cc2Cl)c(F)c1F [PD 224339, 2-(2-Chloro-4-iodo-phenylamino)-5-dimethylsulfamoyl-3,4-difluoro-benzoic acid] has an IC50 [1] of 0.283 µM and an IC50 (C26 Cells) greater than 10 µM.
With Cc1cc(I)ccc1Nc1c(C(=O)O)cc(S(=O)(=O)N(C)C)c(F)c1F [PD 224340, 5-Dimethylsulfamoyl-3,4-difluoro-2-(4-iodo-2-methyl-phenylamino)-benzoic acid] the IC50 [1] was 0.441 µM and the IC50 (C26 Cells) was greater than 10 µM.
In the case of CN(C)S(=O)(=O)c1cc(C(=O)NOCC2CC2)c(Nc2ccc(I)cc2Cl)c(F)c1F [PD 250253, 2-(2-Chloro-4-iodo-phenylamino)-N-cyclopropylmethoxy-5-dimethylsulfamoyl-3,4-difluoro-benzamide], the IC50 [1] is reported as 0.936 µM and the melting point is reported as 222 to 225 °C (dec.).
In the case of Cc1cc(I)ccc1Nc1c(C(=O)NOCC2CC2)cc(S(=O)(=O)N(C)C)c(F)c1F [PD 252745, N-Cyclopropylmethoxy-5-dimethylsulfamoyl-3,4-difluoro-2-(4-iodo-2-methyl-phenylamino)-benzamide], the IC50 [1] is reported as 3.7 µM and the melting point is reported as 171 to 172 °C.

From patent publication US6750217B2, “Benzenesulfonamide derivatives and their use as MEK inhibitors” (Warner-Lambert Company, priority 1999, dated 2004)
